In publication PMC12036814 (Angewandte Chemie (International Ed. in English), 2025):
Entries after “also recorded” stand apart in the source; their conditions may differ.

Columns and labels:
IDH2 = target: T1, IDH2 (Homo sapiens, UniProt P48735); experiment: IDH2 in vitro activity assay (NADPH-coupled diaphorase/resazurin); assay type: biochemical; settings: known inhibitor control
T1 construct: purchased active motif 31615
T1 sequence (P48735 40-452): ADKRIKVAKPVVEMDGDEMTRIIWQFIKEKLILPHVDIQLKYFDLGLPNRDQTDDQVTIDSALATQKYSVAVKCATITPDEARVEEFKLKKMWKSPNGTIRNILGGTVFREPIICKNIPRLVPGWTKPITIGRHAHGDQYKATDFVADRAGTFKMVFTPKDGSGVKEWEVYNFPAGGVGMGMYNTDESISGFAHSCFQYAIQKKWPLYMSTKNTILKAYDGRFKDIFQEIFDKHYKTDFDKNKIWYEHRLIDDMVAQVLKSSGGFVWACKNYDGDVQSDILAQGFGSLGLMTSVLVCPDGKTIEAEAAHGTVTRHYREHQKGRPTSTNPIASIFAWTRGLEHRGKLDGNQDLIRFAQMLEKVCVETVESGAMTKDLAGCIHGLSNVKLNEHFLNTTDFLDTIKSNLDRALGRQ
Procedure: Recombinant human isocitrate dehydrogenase was purchased from active motif (Carlsbad, USA, Cat#
Activity assays were performed as previously described with minor
modifications.12 Briefly, the catalytic activity of converting is ocitrate to 2-oxogluterate (α-
ketoglutarate) converting the cofactor NADP+ to NADPH was measured by a NADPH-coupled assay.
The NADPH-dependent diaphorase (Sigma-Aldrich, St. Louis, USA, Cat# SLBT8928) converted resazurin
for activity read-out. To IDH2 (2 nM) in assay buffer (150 mM NaCl, 50 mM K2HPO4, 10 mM MnCl2, 10
mercaptoethanol (cend= 2.5 mM) for a total reaction volume of 79 µL per well (black 96-well plate, 4
replicates per condition). Conditions lacking IDH2 were added as control. After addition of 1 µL of
vehicle controls, the mixture was incubated at 25 °C for 1 h in the dark. Subsequently, the reaction was
initiated by addition of 20 µL of substrate mix (0.2 mM isocitrate, 60 µg/mL diaphorase, 200 µM
resazurin in assay buffer). Fluorescence was continuously measured using an Infinite M200 pro (Tecan,
the fluorescence increases were calculated via linear regression using GraphPad Prism (version 9).

[1] = system: periodontal ligament cell line (PDL‐hTERT); experiment: Whole proteome analysis and pathway analysis of treated PDL-hTERT cells; assay type: cell-based, human; parameters: dose or concentration left out as unconfirmed; settings: same concentrations ([…] and […] µM), 3 days, compared with Ciprofloxacin
[2] = system: HEK‐293 and PDL‐hTERT cells; experiment: MTT assay, relative metabolic activity after 3 days; assay type: cell-based, human; settings: 3 days of treatment
Procedure: Methods and Experimental Procedures
(Alfa Aesar, Haverhill, USA, Cat# J66943 ) stocks were prepared in sterile -filtered 0.1 N HCl to a
maximum concentration of 50 mM. HCl was used as vehicle control, diluted in culture medium, and
Cell culture experiments were performed in HEK 293, A549 or PDL-hTERT cells1 cultured in DMEM high
glucose medium supplemented with 10% FCS and 2 mM glutamine ( all, Sigma-Aldrich, St. Louis, USA,
Cat# G7513) in 5% CO2 atmosphere at 37 °C in Heracell 150i incubators (Thermo Fisher Scientific,
Waltham, USA). The human periodontal ligament (PDL -hTERT) cell line was provided by Prof. Denitsa
Docheva. During standard cell passaging accutase (Sigma-Aldrich) or 2,5x trypsin/0.5% EDTA in PBS
(Capricorn Scientific, Ebsdorfergrund, Germany) was used for cell detachment. Cell dishes in various
sizes (10 cm, 15 cm) and flasks (T75, T175) were used for cultivation (Sarstedt, Nümbrecht, Germany,
purchased from Thermo Fisher Scientific, Waltham, USA, Cat# 130184, 130188.
HEK or PDL-hTERT cells (1,5 x 10^3 cells/well) were seeded into 96 -well plates and grown for 24 h. […]
removed by suction and the formed formazan crystals dissolved in 200 μL DMSO. The read-out was
performed with an Infinite M200 Pro microplate reader (Tecan, Männedorf, Switzerland) at 570 nm
and background was subtracted at 630 nm. The absorbance values were normalized to DMSO/0.1 N […]

ADAL1 = target: T2, ADAL1 (Homo sapiens, UniProt Q6DHV7); experiment: ADAL1 in vitro activity assay (N6-methyl-AMP absorbance shift); assay type: biochemical; settings: tested up to 500 µM
T2 construct: Full length ADAL1 gene synthesis; made in house; host or cells: E. coli BL21 (DE3)
T2 sequence (Q6DHV7 1-355): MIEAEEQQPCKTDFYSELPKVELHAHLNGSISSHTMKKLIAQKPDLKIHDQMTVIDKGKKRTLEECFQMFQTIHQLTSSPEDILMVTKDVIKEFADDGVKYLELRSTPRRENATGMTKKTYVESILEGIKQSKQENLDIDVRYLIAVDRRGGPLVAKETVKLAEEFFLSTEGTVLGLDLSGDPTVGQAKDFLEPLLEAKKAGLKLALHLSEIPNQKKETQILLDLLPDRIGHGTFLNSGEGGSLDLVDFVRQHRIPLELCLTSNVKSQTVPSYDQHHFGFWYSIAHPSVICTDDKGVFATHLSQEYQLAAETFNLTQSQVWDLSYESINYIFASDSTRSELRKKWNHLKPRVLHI
Procedure: Cytiva, Marlborough, USA, Cat# 6818-1304). Nickel-affinity chromatography purification was
performed with Äkta Pure system (GE Healthcare, Chicago, USA) using an HisTrap HP (5 mL, Cytiva,
Marlborough, USA, Cat# 17-5248) column equilibrated in buffer A. The filtered lysate was applied via
the sample pump and subsequently the column was washed for 15 column volumes (CV) with buffer
A, before gradient elution with buffer B (50 mM Tris pH 8.0, 300 mM NaCl, 5 mM β-mercaptoethanol,
0.1% (v/v) NP40, 10% (v/v) glycerol and 400 mM imidazole) from 0% to 100% buffer B over for 25 CV.
ADAL1 containing fraction s were identified via SDS-PAGE, pooled and dialyzed in buffer 1 (20 mM Tris
pH 8.0, 1 mM DTT, 10% (v/v) glycerol ) in a dialysis membrane ( Carl Roth, Karlsruhe, Germany, Cat#
E659.1) overnight at 4 °C. […]
methyl-AMP (Cayman Chemical, Ann Arbor, USA, Cat# 23382) to […] by ADAL1 was monitored by
the shift of the absorbance maxima of educt ( 265 nm) and product (250 nm). […]
substrate N6-methyl-AMP (1 µL of 20 mM stock in PBS). The absorbance at 270 nm was continuously
measured using a Infinite M200 Pro (Tecan, Männedorf, Switzerland) plate reader. […]
the absorbance readings were calculated via linear regression using GraphPad Prism (version 9). […]
residual activity of compound treated protein was determined in comparison to vehicle -treated […]

NUDT1 = NUDT1 (Homo sapiens, UniProt P36639); experiment: NUDT1 in vitro activity assay (malachite green); assay type: biochemical; parameters: Full length NUDT1 gene synthesis; N-terminal His tag with thrombin site from pET28a(+) (NdeI/XhoI) (N, cleaved yes); made in house; host or cells: E. coli BL21 (DE3); settings: tested 1-500 µM; highest tested 500 µM

| Compound | extent of IDH2 (wild-type) inhibition compared with the FQs (IDH2) | regulation of ETC complex I and IV subunits [1] | approximate apparent IC50 (metabolic activity, MTT) [2] | ADAL1 in vitro activity, effect (ADAL1) | NUDT1 in vitro activity, inhibition (NUDT1) |
| --- | --- | --- | --- | --- | --- |
| CC(C)(O)CNc1nc(Nc2ccnc(C(F)(F)F)c2)nc(-c2cccc(C(F)(F)F)n2)n1 [Enadisenib, Enasidenib] | similar | – | – | – | – |
| C[C@H]1COc2c(N3CCN(C)CC3)c(F)cc3c(=O)c(C(=O)O)cn1c23 [Levofloxacin] | – | also observed using the same concentrations, although to a lesser extent | well above the reported plasma concentrations | no significant effect; also recorded: no inhibitory effect was detected | only at the highest tested concentration (500 µM); also recorded: only significant at the highest concentration tested |
